Laboratory results published in the NIST ThermoML archive (doi:10.1016/j.fluid.2017.05.010).
Numbers after ± are expanded uncertainties.

Conditions: Liquid; Resistive pulse heating

Critical pressure [kPa]	Critical temperature [K]	Structure (SMILES)
4190 ± 130	651 ± 7	CCc1cccnc1 [3-ethylpyridine]
3250 ± 100	656 ± 7	CCc1ccc(C)nc1 [3-ethyl-6-methylpyridine]
4190 ± 130	653 ± 7	CCc1ccncc1 [γ-ethylpyridine]
3810 ± 110	628 ± 6	CCc1ccccn1 [2-ethylpyridine]
